Measured values taken from patent US12514856B2, “Pediatric trazodone compositions and method of treatment thereof” (ANGELINI S.p.A., priority 2019, dated 2026).
“And” between values parts separate entries of the source, which are not always exact repeats. Equal values may be shown once. Read-outs that look alike come from different tables or passages of the source.

What was measured:
[1] = cited from earlier work
Caco-2 permeability = format: in vitro ADME; conditions: human
Excerpt: (§1) Derivation of key parameters is described below.

[2] = Toxicological Risk Assessment of excipients in oral drops (MDI vs ADI); parameters: species or system children; conditions: Maximum Daily Therapeutic Dose up to 0.5 mg/kg/day; for MDI (for 2 years aged children): Trazodone HCl 1.5% oral solution; for MDI (for 6 years aged children): Trazodone HCl 3.0% oral solution
Experimental: The Toxicological Risk Assessment of the formulations was performed to evaluate the safety of the excipients employed in the two oral drops formulations for pediatric use.

[3] = Blood binding (E:P ratio, equilibrium dialysis); format: in vitro ADME
Excerpt: as §1

CYP3A4 = CYP3A4 (Homo sapiens, UniProt P08684); assay: CYP3A4-mediated metabolism (retrograde calculation)
[4] = tested on: children with insomnia affected by NDDs; assay: Phase II trial in children with insomnia affected by NDDs; format: in vivo, human
Experimental: Three different doses, 0.25/0.4 and 0.5 mg/kg/day were administered at bedtime in fruit juice (in a volume of about 200 mL) in the pediatric population of from 2 to 17 years old.
A multi-centre, randomised, parallel-group, single-blind phase II trial was designed, based on the prediction described in the previous Example 3, to evaluate the pharmacokinetics and PKPD relationship of trazodone after single and repeated oral doses in children from 2 to years of age, suffering from insomnia, affected by neurodevelopmental disorders (NDDs: autism spectrum disorder, intellectual disability or attention deficit hyperactivity disorder). The single-blind phase II trial is still ongoing.
The primary objective of this study is to assess the pharmacokinetics (PK) of trazodone after single and repeated doses in patients aged from 2 to years.
Among the secondary objectives of this study, there are the establishment of the pharmacokinetic-pharmacodynamic (PKPD) relationship of trazodone, as assessed by actigraphy measures, and the definition of the dose rationale in children and adolescents aged from […] taking into account the therapeutic exposure range in adults.
The parent's diary will also be used in the evaluation of the results. This phase II clinical trial is designed to assess the PK and PD of 3 dose levels of trazodone in children with insomnia affected by NDDs. A minimum of 36 patients will be randomly assigned (at least 30 evaluable patients, 10 for each treatment arm; at least 10 evaluable patients aged 2 to years, 10 evaluable patients aged 6 to […], 10 evaluable patients aged 12 to years; at least 3 patients for each age and treatment arm).
Patients are initially assigned to one of the 3 treatment arms. Patients in treatment arms 2 and 3 will receive 0.25 mg/kg/day for 3 days followed by a higher maintenance dose for 7 days: • Treatment arm 1: 0.25 mg/kg/day (on days 1 through 10) • Treatment arm 2: 0.4 mg/kg/day (0.25 mg/kg/day on days 1 through 3 and 0.4 mg/kg/day on days 4 through 10) • Treatment arm 3: 0.5 mg/kg/day (0.25 mg/kg/day on days 1 through 3 and 0.5 mg/kg/day on days 4 through 10).
Patients qualifying for the participation in the study at visit 1 (day 1, randomisation—first dose) have been admitted to the clinic at 2 out of 3 visits, according to a patient-specific PK sampling scheme. Due to the requirement of sparse sampling, each patient will contribute a total of 5 PK samples.
Sleep latency and total sleeping time have been recorded by actigraphy starting from 3 consecutive days prior to visit 1 up to the end of the treatment.
An interim analysis has been performed after completion of 18 patients to assess whether data collected allows the determination of the relevant PK parameters with the appropriate precision. The 18 patients are so distributed according treatment arms: 3 patients in treatment arm 1, 5 patients in treatment arm 2, 10 patients in treatment arm 3.

human liver microsome = assay: Additional HLM CLint (retrograde calculation); conditions: 30% of hepatic metabolism assigned to undefined pathways
Excerpt: as §1

[5] = Physical chemistry of trazodone; format: physicochemical
Excerpt: as §1

[6] = PBPK modelling (Simcyp Population-Based Simulator); conditions: ER; fitting of concentration-time data following a single oral dose of 300 mg ER trazodone
[7] = first-listed value/reference (JECFA, SCF)
[8] = alternative value printed beside the first (EMA 2014; FDA 1998 USA; EFSA 2014; JECFA 1973)

CYP3A4, sequence (P08684 whole entry): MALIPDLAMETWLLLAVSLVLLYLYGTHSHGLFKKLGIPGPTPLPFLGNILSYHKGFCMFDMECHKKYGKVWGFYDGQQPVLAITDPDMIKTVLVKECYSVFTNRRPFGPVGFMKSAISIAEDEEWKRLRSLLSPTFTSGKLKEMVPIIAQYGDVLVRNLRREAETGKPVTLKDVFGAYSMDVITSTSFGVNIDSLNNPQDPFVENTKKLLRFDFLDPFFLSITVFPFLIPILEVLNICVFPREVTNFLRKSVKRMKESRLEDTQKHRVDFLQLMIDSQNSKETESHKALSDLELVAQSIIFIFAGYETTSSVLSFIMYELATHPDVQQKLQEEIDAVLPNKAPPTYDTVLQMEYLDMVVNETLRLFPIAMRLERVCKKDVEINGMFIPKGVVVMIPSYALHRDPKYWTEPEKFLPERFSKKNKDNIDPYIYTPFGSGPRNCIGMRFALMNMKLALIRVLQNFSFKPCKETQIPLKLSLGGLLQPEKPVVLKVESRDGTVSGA

Row | SMILES | ADI [1, 7] | MDI (for 2 years aged children) [2] | MDI (for 6 years aged children) [2] | ADI [1, 8] | other results
1 | OC[C@H]1O[C@@](CO)(O[C@H]2O[C@H](CO)[C@@H](O)[C@H](O)[C@H]2O)[C@@H](O)[C@@H]1O [Sucrose] | GRAS |  |  |  | 
2 | COCCc1ccc(OCC(O)CNC(C)C)cc1 (stereo not shown) [metoprolol] |  |  |  |  | Papp (Caco-2 permeability; Caco-2): 28.1 ×10⁻⁶ cm/s
3 | [Na+].[OH-] [Sodium hydroxide] | Not limited | 0.04 mg/kg/day | 0.02 mg/kg/day |  | 
4 | O=C([O-])CN(CCN(CC(=O)[O-])CC(=O)O)CC(=O)O.[Na+].[Na+] [Disodium edetate] | 1.9 mg/kg/day and 1.9 (ex- mg/kg/day | 0.02 mg/kg/day | 0.01 mg/kg/day | 2.5 mg/kg/day | 
5 | O=C(O)CC(O)(CC(=O)O)C(=O)O [Citric acid anhydrous] |  | 0.17 mg/kg/day | 0.08 mg/kg/day |  | 
6 | OC[C@H]1O[C@H](O[C@]2(CCl)O[C@H](CCl)[C@@H](O)[C@@H]2O)[C@H](O)[C@@H](O)[C@H]1Cl [Sucralose] | 15 (UE) mg/kg/day and 15 mg/kg/day and 15 (UE)^ mg/kg/day | 0.05 mg/kg/day | 0.03 mg/kg/day | 5 mg/kg/day and 5 (USA) mg/kg/day | 
7 | O=c1n(CCCN2CCN(c3cccc(Cl)c3)CC2)nc2ccccn12 [trazodone] |  |  |  |  | B/P ([3]; blood to plasma, calculated from measured E:P ratio): 0.68; E:P ratio ([3]; erythrocyte to plasma ratio): of 0.2.; fup ([3]; fraction unbound in plasma, equilibrium dialysis): 0.0354; CLint, CYP3A4 (CYP3A4; Retrograde calculation, 70% of hepatic metabolism assigned to CYP3A4): 0.438 µL/min/pmol; fmCYP3A4 (CYP3A4; estimation of CYP3A4-mediated metabolism): 70%; cumulative total sleep time ([4]; actigraphy, patients showing higher exposure to trazodone): slightly longer sleep time; correlation between secondary PK parameters and relative change from baseline in total sleep time ([4]; interim analysis): correlations were observed; Inter-individual variability in clearance estimates ([4]; pediatric patients vs adult subjects, interim analysis): considerably higher than what has been observed previously in adult subject; dose proportionality of pharmacokinetics ([4]; pediatric patients, 0.25/0.4/0.5 mg/kg/day, interim analysis of 18 patients): dose-proportional; sleep time ([4]; pediatric population with NDD, 0.4 and 0.5 mg/kg/day by drops, preliminary): increase the sleep time; total sleep time ([4]; visit 3, small proportion of patients assigned to 0.4 and 0.5 mg/kg dose, actigraphy): > 9 h; Additional HLM CLint (human liver microsome): 25.7 µL/min/mg; solubility as a function of pH [5]: fully soluble only at acidic pH and precipitates at pH values close to neutrality; pKa ([5]; Monoprotic Base): 6.61; ka [6]: ER: 0.07 hr^−1; Papp (Caco-2 permeability; Caco-2 cells, read-out: mean Papp): 24.2 ×10⁻⁶ cm/s
8 | COC(=O)c1ccc(O)cc1 [methyl parahydroxybenzoate] | 10 mg/kg/day |  |  |  | 
9 | C/C=C/C=C/C(=O)[O-].[K+] [K-Sorbate] | 3 mg/kg/day |  |  | 11 mg/kg/day | 
10 | CCCOC(=O)c1cc(O)c(O)c(O)c1 [Propyl gallate] | 1.4 mg/kg/day | 0.03 mg/kg/day | 0.02 mg/kg/day | 0.5 mg/kg/day | 
11 | CC(O)CO (stereo not shown) [Propylene glycol] | 25 mg/kg/day | 10.00 mg/kg/day | 5.00 mg/kg/day | 50 mg/kg/day | 
12 | O=C([O-])c1ccccc1.[Na+] [Sodium Benzoate] | 5 mg/kg/day |  |  |  | 
